Assay results reported in ChEMBL document CHEMBL5291721, “A preclinical secondary pharmacology resource illuminates target-adverse drug reaction associations of marketed drugs” (Nat Commun, 2023).

What was measured:
[1] = target: Sodium-dependent noradrenaline transporter (Homo sapiens, UniProt P23975)
[2] = target: Prothrombin (Homo sapiens, UniProt P00734); format: functional
[3] = target: T1, Adenosine receptor A3 (Homo sapiens, UniProt P0DMS8)
T1 sequence (P0DMS8 whole entry): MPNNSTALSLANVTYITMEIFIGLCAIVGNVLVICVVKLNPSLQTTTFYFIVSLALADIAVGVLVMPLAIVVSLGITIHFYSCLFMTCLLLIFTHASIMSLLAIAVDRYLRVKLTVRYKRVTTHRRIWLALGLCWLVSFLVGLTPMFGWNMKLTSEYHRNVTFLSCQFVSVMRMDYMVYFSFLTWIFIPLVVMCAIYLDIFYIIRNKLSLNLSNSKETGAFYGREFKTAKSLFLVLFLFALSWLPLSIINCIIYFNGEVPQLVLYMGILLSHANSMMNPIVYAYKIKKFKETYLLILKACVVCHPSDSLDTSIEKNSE

[4] = target: Acetylcholinesterase (Homo sapiens, UniProt P22303); format: functional
Chain of Acetylcholinesterase (P22303 whole entry): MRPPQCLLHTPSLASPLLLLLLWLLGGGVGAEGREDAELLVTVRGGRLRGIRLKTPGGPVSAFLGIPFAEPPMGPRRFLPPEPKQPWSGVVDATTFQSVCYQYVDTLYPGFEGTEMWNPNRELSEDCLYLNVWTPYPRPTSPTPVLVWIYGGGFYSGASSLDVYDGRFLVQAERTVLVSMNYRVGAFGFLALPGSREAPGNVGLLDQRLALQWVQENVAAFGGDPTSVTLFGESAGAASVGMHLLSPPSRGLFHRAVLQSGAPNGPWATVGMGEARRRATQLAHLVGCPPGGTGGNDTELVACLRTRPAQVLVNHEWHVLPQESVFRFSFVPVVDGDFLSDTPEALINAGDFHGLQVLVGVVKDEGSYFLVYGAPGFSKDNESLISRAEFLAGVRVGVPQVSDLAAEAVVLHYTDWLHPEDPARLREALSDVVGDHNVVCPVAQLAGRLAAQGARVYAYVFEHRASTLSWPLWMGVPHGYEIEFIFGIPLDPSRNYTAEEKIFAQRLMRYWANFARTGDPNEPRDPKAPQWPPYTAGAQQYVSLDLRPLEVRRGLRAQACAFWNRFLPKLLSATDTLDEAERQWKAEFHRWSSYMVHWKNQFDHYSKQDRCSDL

[5] = target: T2, Alpha-1A adrenergic receptor (Homo sapiens, UniProt P35348); format: functional, cell-based
T2 sequence (P35348 whole entry): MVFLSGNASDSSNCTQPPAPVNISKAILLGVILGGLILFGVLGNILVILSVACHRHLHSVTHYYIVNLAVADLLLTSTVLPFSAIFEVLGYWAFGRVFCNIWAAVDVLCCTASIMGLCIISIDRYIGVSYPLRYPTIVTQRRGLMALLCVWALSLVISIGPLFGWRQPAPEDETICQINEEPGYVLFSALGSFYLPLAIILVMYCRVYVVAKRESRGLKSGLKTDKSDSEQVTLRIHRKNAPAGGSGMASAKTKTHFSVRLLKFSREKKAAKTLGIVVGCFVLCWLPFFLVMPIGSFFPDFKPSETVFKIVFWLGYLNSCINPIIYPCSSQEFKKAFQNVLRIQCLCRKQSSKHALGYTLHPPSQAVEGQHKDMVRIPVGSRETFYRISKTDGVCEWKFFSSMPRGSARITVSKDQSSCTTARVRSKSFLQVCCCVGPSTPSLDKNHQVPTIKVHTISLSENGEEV

[6] = target: Prostaglandin G/H synthase 1 (Homo sapiens, UniProt P23219); format: functional
Chain of Prostaglandin G/H synthase 1 (P23219 whole entry): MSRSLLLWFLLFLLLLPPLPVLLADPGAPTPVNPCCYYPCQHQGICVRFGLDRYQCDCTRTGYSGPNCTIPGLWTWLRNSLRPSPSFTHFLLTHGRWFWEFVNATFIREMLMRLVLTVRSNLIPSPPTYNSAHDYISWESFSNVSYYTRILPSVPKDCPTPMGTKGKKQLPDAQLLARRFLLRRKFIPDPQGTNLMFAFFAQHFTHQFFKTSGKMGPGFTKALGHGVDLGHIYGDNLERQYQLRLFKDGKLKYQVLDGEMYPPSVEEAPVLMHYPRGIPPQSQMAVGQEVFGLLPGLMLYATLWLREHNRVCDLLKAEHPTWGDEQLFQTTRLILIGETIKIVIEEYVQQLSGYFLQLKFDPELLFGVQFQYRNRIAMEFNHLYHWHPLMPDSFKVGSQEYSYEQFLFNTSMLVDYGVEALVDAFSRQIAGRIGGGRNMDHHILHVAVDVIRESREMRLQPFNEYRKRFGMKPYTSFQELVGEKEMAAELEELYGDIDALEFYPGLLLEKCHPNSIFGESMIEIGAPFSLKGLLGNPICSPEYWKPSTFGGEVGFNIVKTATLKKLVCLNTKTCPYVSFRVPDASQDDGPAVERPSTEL

[7] = target: D(1A) dopamine receptor (Homo sapiens, UniProt P21728)
Chain of D(1A) dopamine receptor (P21728 whole entry): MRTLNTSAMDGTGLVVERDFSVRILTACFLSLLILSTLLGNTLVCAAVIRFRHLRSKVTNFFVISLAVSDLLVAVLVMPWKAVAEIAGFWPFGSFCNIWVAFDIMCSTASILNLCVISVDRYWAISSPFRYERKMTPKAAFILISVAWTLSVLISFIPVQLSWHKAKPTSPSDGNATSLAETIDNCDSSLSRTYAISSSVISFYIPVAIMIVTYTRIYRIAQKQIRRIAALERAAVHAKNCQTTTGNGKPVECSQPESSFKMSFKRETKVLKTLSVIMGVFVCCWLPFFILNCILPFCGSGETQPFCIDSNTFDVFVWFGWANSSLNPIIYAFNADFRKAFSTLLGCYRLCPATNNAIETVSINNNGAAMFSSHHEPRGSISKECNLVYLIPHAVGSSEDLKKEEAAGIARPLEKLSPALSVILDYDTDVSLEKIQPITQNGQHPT

[8] = target: T3, Thromboxane A2 receptor (Homo sapiens, UniProt P21731); format: functional, cell-based
T3 sequence (P21731 whole entry): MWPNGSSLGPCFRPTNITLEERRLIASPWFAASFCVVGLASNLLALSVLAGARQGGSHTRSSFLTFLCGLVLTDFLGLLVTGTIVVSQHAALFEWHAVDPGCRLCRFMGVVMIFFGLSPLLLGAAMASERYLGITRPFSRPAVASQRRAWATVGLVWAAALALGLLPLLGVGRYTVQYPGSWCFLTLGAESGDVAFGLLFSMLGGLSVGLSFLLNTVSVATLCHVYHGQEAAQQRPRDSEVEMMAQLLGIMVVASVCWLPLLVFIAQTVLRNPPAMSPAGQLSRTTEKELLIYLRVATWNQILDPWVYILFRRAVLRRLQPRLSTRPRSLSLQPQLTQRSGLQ

[9] = target: Mu-type opioid receptor (Homo sapiens, UniProt P35372)
Chain of Mu-type opioid receptor (P35372 whole entry): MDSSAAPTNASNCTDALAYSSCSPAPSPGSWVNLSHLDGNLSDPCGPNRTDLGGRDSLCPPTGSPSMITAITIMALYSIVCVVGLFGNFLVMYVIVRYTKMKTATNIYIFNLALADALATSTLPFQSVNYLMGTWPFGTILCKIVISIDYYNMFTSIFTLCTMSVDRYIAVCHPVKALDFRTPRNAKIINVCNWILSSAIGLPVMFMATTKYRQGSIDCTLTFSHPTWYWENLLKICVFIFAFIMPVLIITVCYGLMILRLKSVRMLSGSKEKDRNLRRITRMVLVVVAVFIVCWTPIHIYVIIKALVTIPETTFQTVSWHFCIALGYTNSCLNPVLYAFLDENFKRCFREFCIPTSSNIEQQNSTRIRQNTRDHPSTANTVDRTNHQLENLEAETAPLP

[10] = target: Histamine H3 receptor (Homo sapiens, UniProt Q9Y5N1)
Chain of Histamine H3 receptor (Q9Y5N1 whole entry): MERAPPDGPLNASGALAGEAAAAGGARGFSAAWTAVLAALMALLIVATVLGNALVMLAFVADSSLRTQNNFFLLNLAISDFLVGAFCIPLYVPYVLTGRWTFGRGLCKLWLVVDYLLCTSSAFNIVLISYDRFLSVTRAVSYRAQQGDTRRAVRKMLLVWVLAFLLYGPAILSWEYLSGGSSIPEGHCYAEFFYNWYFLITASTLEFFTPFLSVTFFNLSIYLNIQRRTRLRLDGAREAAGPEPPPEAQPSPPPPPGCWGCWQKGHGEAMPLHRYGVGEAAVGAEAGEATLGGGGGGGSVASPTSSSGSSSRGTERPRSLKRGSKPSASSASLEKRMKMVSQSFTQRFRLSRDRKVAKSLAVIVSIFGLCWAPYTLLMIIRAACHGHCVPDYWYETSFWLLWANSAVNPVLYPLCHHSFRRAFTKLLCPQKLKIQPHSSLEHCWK

[11] = target: T4, Progesterone receptor (Homo sapiens, UniProt P06401)
T4 sequence (P06401 whole entry): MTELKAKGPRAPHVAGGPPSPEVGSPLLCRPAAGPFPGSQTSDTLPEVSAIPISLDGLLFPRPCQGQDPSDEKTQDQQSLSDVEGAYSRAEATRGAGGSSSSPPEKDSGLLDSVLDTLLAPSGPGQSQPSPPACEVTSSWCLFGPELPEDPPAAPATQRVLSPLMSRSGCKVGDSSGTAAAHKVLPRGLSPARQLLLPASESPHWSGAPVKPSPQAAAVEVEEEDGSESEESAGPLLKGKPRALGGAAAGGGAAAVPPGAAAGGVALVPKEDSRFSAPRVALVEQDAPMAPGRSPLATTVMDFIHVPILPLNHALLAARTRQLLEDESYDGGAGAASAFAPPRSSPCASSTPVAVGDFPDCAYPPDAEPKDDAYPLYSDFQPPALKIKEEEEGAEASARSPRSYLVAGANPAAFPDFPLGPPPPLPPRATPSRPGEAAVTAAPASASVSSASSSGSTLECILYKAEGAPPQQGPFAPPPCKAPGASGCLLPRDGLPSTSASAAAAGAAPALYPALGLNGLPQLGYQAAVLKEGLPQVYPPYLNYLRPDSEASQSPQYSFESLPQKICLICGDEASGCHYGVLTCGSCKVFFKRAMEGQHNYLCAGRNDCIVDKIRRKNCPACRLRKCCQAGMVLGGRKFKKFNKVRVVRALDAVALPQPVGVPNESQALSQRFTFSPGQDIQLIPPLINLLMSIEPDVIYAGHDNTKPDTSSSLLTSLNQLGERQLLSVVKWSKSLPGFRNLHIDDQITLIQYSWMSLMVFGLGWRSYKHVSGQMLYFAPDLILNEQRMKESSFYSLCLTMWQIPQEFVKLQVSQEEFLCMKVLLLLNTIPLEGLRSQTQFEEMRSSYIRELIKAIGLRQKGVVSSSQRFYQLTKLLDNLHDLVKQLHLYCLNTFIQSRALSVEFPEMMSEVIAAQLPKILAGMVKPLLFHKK
Note: assay procedure not described here.

Chain of Sodium-dependent noradrenaline transporter (P23975 whole entry): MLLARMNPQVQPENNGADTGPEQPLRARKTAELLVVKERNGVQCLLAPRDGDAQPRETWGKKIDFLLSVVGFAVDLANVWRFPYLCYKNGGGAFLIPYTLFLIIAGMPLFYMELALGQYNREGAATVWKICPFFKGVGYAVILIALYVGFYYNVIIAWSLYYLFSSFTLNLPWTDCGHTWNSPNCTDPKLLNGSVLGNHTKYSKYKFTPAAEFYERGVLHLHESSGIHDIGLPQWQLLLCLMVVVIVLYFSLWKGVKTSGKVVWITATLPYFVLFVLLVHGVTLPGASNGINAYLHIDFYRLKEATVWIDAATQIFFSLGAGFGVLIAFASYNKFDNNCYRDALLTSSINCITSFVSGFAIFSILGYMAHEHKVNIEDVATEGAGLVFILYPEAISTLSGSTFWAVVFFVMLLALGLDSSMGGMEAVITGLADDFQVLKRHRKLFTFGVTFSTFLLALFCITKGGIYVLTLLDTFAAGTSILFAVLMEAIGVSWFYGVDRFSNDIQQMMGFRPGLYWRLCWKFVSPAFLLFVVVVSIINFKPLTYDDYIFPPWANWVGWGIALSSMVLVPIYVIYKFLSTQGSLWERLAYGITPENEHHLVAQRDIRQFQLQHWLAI

Row | SMILES | AC50 [1] [µM] | AC50 [2] [µM] | AC50 [3] [µM] | AC50 [4] [µM] | AC50 [5] [µM] | AC50 [6] [µM] | AC50 [7] [µM] | AC50 [8] [µM] | AC50 [9] [µM] | AC50 [10] [µM] | AC50 [11] [µM]
1 | CCCC1O[C@@H]2C[C@H]3[C@@H]4CCC5=CC(=O)C=C[C@]5(C)[C@H]4[C@@H](O)C[C@]3(C)[C@]2(C(=O)CO)O1 (stereo partly drawn) [BUDESONIDE] | > 30 | > 30 | > 30 | > 30 | > 30 | > 30 | > 30 | > 30 | > 30 | > 30 | 
2 | CC[C@H]1CN2CCc3cc(OC)c(OC)cc3[C@@H]2C[C@@H]1C[C@H]1NCCc2cc(OC)c(OC)cc21 [EMETINE] | > 30 | > 30 |  | > 30 |  | > 30 | 15.7 | > 30 | 5.99 | > 30 | > 30
3 | O=c1[nH]c(=O)n([C@H]2C[C@H](O)[C@@H](CO)O2)cc1F [FLOXURIDINE] | > 30 | > 30 | > 30 | > 30 | > 30 | > 30 | > 30 | > 30 | > 30 | > 30 | > 30
4 | Clc1cc(Cl)c(OCC#CI)cc1Cl [HALOPROGIN] | 5.12 | > 30 | 0.946 | > 30 | > 30 | > 30 |  | > 30 | 12.3 | > 30 | > 30
5 | O=c1[nH]c(=O)n([C@H]2C[C@H](O)[C@@H](CO)O2)cc1I [IDOXURIDINE] | > 30 | > 30 | > 30 | > 30 | > 30 | > 30 | > 30 | > 30 | > 30 | > 30 | > 30
6 | Cc1cc(C)c(NC(=O)CN(CC(=O)O)CC(=O)O)c(C)c1Br [MEBROFENIN] | > 30 | > 30 |  | > 30 |  | > 30 | > 30 | > 30 | > 30 | > 30 | > 30
7 | COc1ccccc1N1CCN(CC(O)COc2cccc3ccccc23)CC1 (stereo not drawn) [NAFTOPIDIL] | 6.01 | > 30 |  | 26.1 |  | > 30 | 2.08 | > 30 | 0.9 | > 30 | > 30
8 | COc1cc([C@@H]2c3cc4c(cc3[C@H](O)[C@H]3COC(=O)[C@H]23)OCO4)cc(OC)c1OC [PODOFILOX] | > 30 | > 30 | > 30 | > 30 | > 30 | > 30 | > 30 | > 30 | > 30 | > 30 | > 30
9 | COc1cc2nc(N3CCN(C(=O)c4ccco4)CC3)nc(N)c2cc1OC [PRAZOSIN] | > 30 | > 10 |  | 23.7 |  | > 30 | 8.64 | > 30 | 17.5 | > 30 | > 30
10 | Nc1ccc2cc3ccc(N)cc3nc2c1 [PROFLAVINE] | 2.69 | 9.65 | 10.2 | 1.84 | > 0.3 | 5.49 | 10.6 | > 0.3 | 3.64 | 16.3 | > 30
11 | Cc1oc(=O)oc1CN1CCN(c2cc3c(cc2F)c(=O)c(C(=O)O)c2n3C(C)S2)CC1 (stereo not drawn) [PRULIFLOXACIN] | > 30 | > 30 |  | > 30 |  | > 30 | > 30 | > 30 | > 30 | > 30 | > 30
12 | CCN1CCCC1CNC(=O)c1cc(S(N)(=O)=O)ccc1OC (stereo not drawn) [SULPIRIDE] | > 30 | > 30 | > 30 | > 30 | > 30 | 15.8 | 16.5 | > 30 | > 30 | > 30 | > 30
13 | O=c1[nH]c(=O)n(C2CCCO2)cc1F (stereo not drawn) [TEGAFUR] | > 30 | > 30 | > 30 | > 30 | > 30 | > 30 | > 30 | > 30 | > 30 | > 30 | > 30
14 | Nc1nc2nc[nH]c2c(=S)[nH]1 [THIOGUANINE] | > 30 | > 30 | > 30 | > 30 | > 30 | 1.32 | > 30 | > 30 | > 30 | > 30 | > 30
15 | COc1cc2c3cc1Oc1cc(ccc1O)C[C@@H]1c4c(cc(OC)c(O)c4Oc4ccc(cc4)C[C@@H]3N(C)CC2)CC[N+]1(C)C [TUBOCURARINE] | > 30 | > 30 | > 30 | > 30 | > 30 | > 30 | > 30 | > 30 | 24.1 | > 30 | > 30
16 | C=CCCCCCCCCC(=O)O [UNDECYLENIC ACID] | > 30 | > 30 |  | > 30 |  | > 30 | > 30 | > 30 | > 30 | > 30 | > 30
17 | CC[C@]1(O)C[C@H]2CN(CCc3c([nH]c4ccccc34)[C@@](C(=O)OC)(c3cc4c(cc3OC)N(C=O)[C@H]3[C@@](O)(C(=O)OC)[C@H](OC(C)=O)[C@]5(CC)C=CCN6CC[C@]43[C@@H]65)C2)C1 [VINCRISTINE] | > 30 | > 30 | > 30 | > 30 | > 30 | 5.73 | > 30 | > 30 | > 30 | > 30 | > 30
